Data taken from article PMC10447463, “Data-mining unveils structure–property–activity correlation of viral infectivity enhancing self-assembling peptides” (Nature Communications, 2023).
Where two headings read alike, the source gives them in different places.

Legend:
[1] = type: physicochemical; parameters: key to Fibril / Fibril Formation / TEM 2cat / Fibril: 1 = fibrils present; 0 non-fibrillar structures; conditions: for Fibril / Fibril / Fibril Formation: TEM; for Fibril / Fibril Formation: 1 mg/mL, uranyl acetate stain, qualitative
[2] = Turbidity, derived count rate of scattered light; type: physicochemical; conditions: for Count Rate: derived count rate of scattered light (turbidity); for Log10 Count Rate: turbidity, derived count rate of scattered light, data of Figure 2D
[3] = Zeta-potential measurement; type: physicochemical
Method in brief: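 In this measurement, peptides aggregated for a day at RT in phosphate-buffered saline (pH 7.4, 1 mg/mL) are diluted into 1 mM potassium chloride, and the electrophoretic mobility is translated into zeta potential by Smoluchowski's relation.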

[4] = test system: HIV-1 infection of TZM-bl cells; test: HIV-1 infectivity enhancement assay, β-galactosidase luminescence; type: cell-based; conditions: for Rel-EFC: infection relative to EF-C (QCKIKQIINMWQ = 1); for Log10 Infection Rel EFC: log10 of infection relative to EF-C; for Log Infectivity: Fig. S7 panel A (plotted against β-sheet content), Log10 infection relative to EF-C, TZM-bl cells, asymmetric std dev errors; for Log10 Infection Rel EF-C: HIV-1 infection of TZM-bl cells; for Log10 of Rel to EFC (Feb2021): Log10 of infection relative to EF-C, all peptides of FigS16; for Abs. Inf.: absolute infection signal, HIV-1 on TZM-bl cells, β-galactosidase luminescence; for Log10 Inf. rel. to EF-C: log10 of HIV-1 infection of TZM-bl cells relative to EF-C (EF-C = 0)
[5] = β-sheet content by ATR-FT-IR; type: physicochemical; conditions: Fig. S7 panel A; β-sheet content by ATR-FT-IR
Method in brief: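 In the conversion assay, unconverted peptide passing a 3 kDa membrane at 4 °C was labelled with fluorescamine alongside unfiltered PNF, both in DMSO, and read at 365/470 nm after 20 min at room temperature. β-sheet content relied on ATR FT-IR of lyophilized fibril powder.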

[6] = FigS12 panel A, fibril category by TEM
[7] = 1 = fibrils present, 0 = non-fibrillar
[8] = 1 = fibrils present, 0 = non-fibrillar structures
[9] = zeta potential of peptide assemblies
[10] = zeta-potential of peptide, source data of Figure 2C
[11] = zeta-potential of the peptide assemblies, mean, Figure 3A source data
[12] = Log10 of infection rate relative to EF-C, Figure 3A source data
[13] = infection rate relative to EF-C, log10, data of Figure 2D
[14] = infection rate relative to EF-C, log10, source data of Figure 2C
[15] = category: fibrils present or non-fibrillar

CKYKYQY
TEM 2cat ([1]; Fig S10 panel D): 0 | TEM 2cat [1, 6]: 0 | Fibril ([1]; FigS12 panel B): 0 | Fibril / Fibril Formation [1]: 0 | Fibril [1, 7]: 0 | Fibril [1, 8]: 0 | Count Rate [2]: 1061 | Log10 Count Rate [2]: 3.026 | Zeta-Pot. [3, 9]: 1.49 | Zeta-Potential / mV [3, 10]: 3.282 mV | Zeta-Potential / mV [3, 11]: 1.49 mV | Rel-EFC ([4]; 1.3 µM peptide): 0,04 | Log10 Infection Rel EFC ([4]; 1.3 µM peptide): -1,39 | Log Infectivity [4]: -1.3903 | Log10 Infection Rel EF-C [4, 12]: -1.39 | Log10 Infection Rel EF-C [4, 13]: -1.3903 | Log10 Infection Rel EF-C [4, 14]: -1.3903 | b -sheet / % [5]: 49.12%

QCKFKFQF
TEM 2cat ([1]; Fig S10 panel D): 1 | Fibril / Fibril Formation [1]: 1 | Fibril [1, 7]: 1 | Fibril [1, 8]: 1 | TEM 2cat [1, 15]: 1 | Count Rate [2]: 2669 | Log10 Count Rate [2]: 3.426 | Zeta-Pot. [3]: 12.2 | Zeta-Potential / mV [3, 10]: 13.3 mV | Zeta-Potential / mV [3, 11]: 12.2 mV | Rel-EFC ([4]; 1.3 µM peptide): 0,77 | Log10 Infection Rel EFC ([4]; 1.3 µM peptide): -0,12 | Log Infectivity [4]: -0.1152 | Log10 Infection Rel EF-C [4, 12]: -0.12 | Log10 Infection Rel EF-C [4, 13]: -0.1152 | Log10 Infection Rel EF-C [4, 14]: -0.1152 | Log10 of Rel to EFC (Feb2021) [4]: -0.12 | Abs. Inf. [4]: 20303.33333 | Log10 Inf. rel. to EF-C [4]: -0.1152 | b -sheet / % [5]: 40.03%

KFKQFFNMWQ
TEM 2cat ([1]; Fig S10 panel D): 0 | TEM 2cat [1, 6]: 0 | Fibril ([1]; FigS12 panel B): 0 | Fibril / Fibril Formation [1]: 0 | Fibril [1, 7]: 0 | Fibril [1, 8]: 0 | Count Rate [2]: 236.9 | Log10 Count Rate [2]: 2.375 | Zeta-Pot. [3]: -3.43 | Zeta-Potential / mV [3, 10]: -2.615 mV | Zeta-Potential / mV [3, 11]: -3.43 mV | Rel-EFC ([4]; 1.3 µM peptide): 0,09 | Log10 Infection Rel EFC ([4]; 1.3 µM peptide): -1,05 | Log Infectivity [4]: -1.0494 | Log10 Infection Rel EF-C [4, 12]: -1.05 | Log10 Infection Rel EF-C [4, 13]: -1.0494 | Log10 Infection Rel EF-C [4, 14]: -1.0494 | Abs. Inf. [4]: 1000 | Log10 Inf. rel. to EF-C [4]: -1.0494 | b -sheet / % [5]: 32.75%

MKFM
TEM 2cat ([1]; Fig S10 panel D): 0 | TEM 2cat [1, 6]: 0 | Fibril ([1]; FigS12 panel B): 0 | Fibril / Fibril Formation [1]: 0 | Fibril [1, 7]: 0 | Fibril [1, 8]: 0 | Count Rate [2]: 130.8 | Log10 Count Rate [2]: 2.1165 | Zeta-Pot. [3]: -16 | Zeta-Potential / mV [3, 10]: -9.2 mV | Zeta-Potential / mV [3, 11]: -16 mV | Rel-EFC ([4]; 1.3 µM peptide): 0,02 | Log10 Infection Rel EFC ([4]; 1.3 µM peptide): -1,76 | Log Infectivity [4]: -1.756 | Log10 Infection Rel EF-C [4, 12]: -1.76 | Log10 Infection Rel EF-C [4, 13]: -1.756 | Log10 Infection Rel EF-C [4, 14]: -1.756 | Abs. Inf. [4]: 383.3 | Log10 Inf. rel. to EF-C [4]: -1.756 | b -sheet / % [5]: 34.63%

CKFKFQFNMW
TEM 2cat ([1]; Fig S10 panel D): 1 | Fibril / Fibril Formation [1]: 1 | Fibril [1, 7]: 1 | Fibril [1, 8]: 1 | TEM 2cat [1, 15]: 1 | Count Rate [2]: 4107 | Log10 Count Rate [2]: 3.613 | Zeta-Pot. [3, 9]: 18.4 | Zeta-Potential / mV [3, 10]: 17.67 mV | Zeta-Potential / mV [3, 11]: 18.4 mV | Rel-EFC ([4]; 1.3 µM peptide): 0,96 | Log10 Infection Rel EFC ([4]; 1.3 µM peptide): -0,02 | Log Infectivity [4]: -0.01766 | Log10 Infection Rel EF-C [4, 12]: -0.02 | Log10 Infection Rel EF-C [4, 13]: -0.01766 | Log10 Infection Rel EF-C [4, 14]: -0.01766 | Log10 of Rel to EFC (Feb2021) [4]: -0.02 | b -sheet / % [5]: 47.7253%

CKIKIQIII
TEM 2cat ([1]; Fig S10 panel D): 1 | Fibril / Fibril Formation [1]: 1 | Fibril [1, 7]: 1 | Fibril [1, 8]: 1 | TEM 2cat [1, 15]: 1 | Count Rate [2]: 4953 | Log10 Count Rate [2]: 3.695 | Zeta-Pot. [3]: 16.2 | Zeta-Potential / mV [3, 10]: 16.2 mV | Zeta-Potential / mV [3, 11]: 16.2 mV | Rel-EFC ([4]; 1.3 µM peptide): 0,98 | Log10 Infection Rel EFC ([4]; 1.3 µM peptide): -0,01 | n-fold Infection, 1.3 µM ([4]; 1.3 µM peptide, n-fold infection): 41 n-fold | Log Infectivity [4]: -0.01045 | Log10 Infection Rel EF-C [4, 12]: -0.01 | Log10 Infection Rel EF-C [4, 13]: -0.01045 | Log10 Infection Rel EF-C [4, 14]: -0.01045 | Log10 of Rel to EFC (Feb2021) [4]: -0.01 | Abs. Inf. [4]: 22150 | Log10 Inf. rel. to EF-C [4]: -0.01045 | b -sheet / % [5]: 36.7%
